Laboratory results published in patent US8691864B2, “Agents useful for reducing amyloid precursor protein and treating dementia and methods of use thereof” (priority 2000, dated 2014).

What was measured:
SH-SY-5Y Cells = experiment: MTS toxicity assay in SHSY5Y cells; type: cell-based, human
Procedure: (§1) An enzyme-linked immunosorbent assay was developed to detect secreted APP in SHSY5Y cells, a human neuroblastoma cell line. The purpose of the screen was to discover small molecules that inhibit APP protein synthesis in SHSY5Y cells. SHSY5Y cells were plated at 1×10^5 cells/well in […] of DMEM containing 0.5% heat inactivated FBS in 96 well tissue culture treated plates (Falcon no. 35 3072). 144 MES compounds were tested at final concentrations of […] in 0.1% DMSO. Compounds were added and the plates incubated for 16 hours at 37° C./5% CO2. Maxisorp plates (Nunc no. 437958) were coated overnight with […] capture antibody (Biosource 44-100) diluted in Ca^++ and Mg^++ free PBS. Biosource 44-100 is a mouse mAb that recognizes aa 1-100 of human APP. Plates were blocked for 30 minutes with 1 mg/mL BSA in Ca^++ and Mg^++ free PBS. Plates were washed 3× with wash buffer (Ca^++ and Mg^++ free PBS+0.01% Tween20). […] of supernatants and non-cultured medium controls were transferred from culture plates to ELISA plates. Culture plates were reserved for toxicity analysis. Supernatants were incubated for 4 hours at RT on a plate shaker. After supernatant incubation, plates were washed 3×. Primary antibody (Signet Clone 6E-10 biotin) was added at 0.3125 mg/mL and incubated overnight at 4° C. The recognition site of 6E-10 is aa 1-17 of Ab. For detection, a 1:3000 dilution of horseradish peroxidase conjugated streptavidin (Endogen no. N-100) was incubated for 30 minutes. Plates were washed 3×. Enzyme activity was assessed by incubation with […] TMB substrate solution (Moss no. TMB-US) for 20 minutes. The reaction was stopped by the addition of […] 0.18M sulfuric acid. Optical density was read at 450 nm on Wallac Victor2 plate reader. During the first incubation, toxicity was determined using MTS assay, Cell Titer96 AQ reagent (Promega no. G5430). The background values from the non-cultured medium control were subtracted from the sample values and secreted APP levels and toxicity were expressed as % vehicle control. Of the 144 MES compounds screened, 12 inhibited secreted APP as determined by ELISA. The results are depicted in FIGS. 13A-M.
(§2) Using the experimental procedure outlined above, APP secretion and toxicity studies were performed on several other non-carbamate compounds, and the results are shown in Tables 3 and 4. The compound structures are provided in Table 2 in the application, which are identified by their MES number.

secreted APP = experiment: ELISA for secreted APP in SHSY5Y cells; type: cell-based, human; settings: 16 hours
Procedure: as §1, §2

SMILES | APP Toxicity SH-SY-5Y Cells (MTS assay) (SH-SY-5Y Cells; Dose 2 uM) [% vehicle control] | APP Toxicity SH-SY-5Y Cells (MTS assay) (SH-SY-5Y Cells; Dose 6 uM) [% vehicle control] | APP Toxicity SH-SY-5Y Cells (MTS assay) (SH-SY-5Y Cells; Dose 20 uM) [% vehicle control] | APP Secretion by SH-SY-5Y Cells (secreted APP; Dose 2 uM) [% vehicle control] | APP Secretion by SH-SY-5Y Cells (secreted APP; Dose 6 uM) [% vehicle control] | APP Secretion by SH-SY-5Y Cells (secreted APP; Dose 20 uM) [% vehicle control] | also measured
COc1ccc2c(c1)C1(C)CCN(C)C1N2 (stereo not drawn) [MES 9201] | 98.9 | 98.65 | 98.25 | 97.25 | 110.75 | 124.65 | 
CN1CC[C@@]2(C)c3cc(O)ccc3N(Cc3ccccc3)C12 (stereo partly drawn) [MES 9206] | 96 | 91.85 | 76.3 | 88.2 | 97.1 | 96.4 | 
CN1CC[C@]2(C)c3cc(O)ccc3N(Cc3ccccc3)C12 (stereo partly drawn) [MES 9215] | 92.3 | 78.6 | 12.9 | 94.55 | 108.1 | 6.2 | 
CN1CC[C@@]2(C)C3=CC(=O)C(=O)C=C3N(C)C12 (stereo partly drawn) [MES 9225] | 104.6 | 100.1 | 66.5 | 110.45 | 109.2 | 59.75 | 
C=CC1C[N+]2(Cc3ccc(C(F)(F)F)cc3)CCC1CC2[C@H](O)c1ccnc2ccccc12.[Br-] (stereo partly drawn) [MES 9226] | 106.4 | 99.7 | 97.9 | 116.55 | 101.95 | 104.65 | 
COc1ccc2c(c1)[C@@](C)(CC#N)C(=O)N2C [MES 9227] | 103.7 | 99.27 | 96.07 | 101.15 | 99.45 | 120.5 | 
COc1ccc2c(c1)[C@@]1(C)CCNC1N2C (stereo partly drawn) [MES 9228] |  |  |  |  |  |  | APP Toxicity SH-SY-5Y Cells (MTS assay) (SH-SY-5Y Cells; Dose 2 uM, listed as 9228): 102.8 % vehicle control; APP Toxicity SH-SY-5Y Cells (MTS assay) (SH-SY-5Y Cells; Dose 6 uM, listed as 9228): 97.6 % vehicle control; APP Toxicity SH-SY-5Y Cells (MTS assay) (SH-SY-5Y Cells; Dose 20 uM, listed as 9228): 95.4 % vehicle control; APP Secretion by SH-SY-5Y Cells (secreted APP; Dose 2 uM, listed as 9228): 97.75 % vehicle control; APP Secretion by SH-SY-5Y Cells (secreted APP; Dose 6 uM, listed as 9228): 110.45 % vehicle control; APP Secretion by SH-SY-5Y Cells (secreted APP; Dose 20 uM, listed as 9228): 130.05 % vehicle control
COc1ccc2c(c1)[C@@]1(C)CCN(C)C1N2C (stereo partly drawn) [MES 9229] | 99.97 | 96.07 | 91.47 | 111.6 | 111.4 | 125.1 | 
CN1CC[C@]2(C)c3cc(O)ccc3N(C)C12 (stereo partly drawn) [MES 9230] | 100.8 | 86.13 | 13.83 | 101.25 | 88.8 | 4.4 | 
COc1ccc2c(c1)[C@]1(C)CCN(Cc3ccccc3)C1N2C (stereo partly drawn) [MES 9231] |  |  |  |  |  |  | APP Toxicity SH-SY-5Y Cells (MTS assay) (SH-SY-5Y Cells; Dose 2 uM, listed as 9231): 95.7 % vehicle control; APP Toxicity SH-SY-5Y Cells (MTS assay) (SH-SY-5Y Cells; Dose 6 uM, listed as 9231): 90.73 % vehicle control; APP Toxicity SH-SY-5Y Cells (MTS assay) (SH-SY-5Y Cells; Dose 20 uM, listed as 9231): 85.87 % vehicle control; APP Secretion by SH-SY-5Y Cells (secreted APP; Dose 2 uM, listed as 9231): 104.9 % vehicle control; APP Secretion by SH-SY-5Y Cells (secreted APP; Dose 6 uM, listed as 9231): 133.5 % vehicle control; APP Secretion by SH-SY-5Y Cells (secreted APP; Dose 20 uM, listed as 9231): 154.2 % vehicle control
COc1ccc2c(c1)[C@@]1(C)CC[N+](C)(C)C1N2Cc1ccccc1.[I-] (stereo partly drawn) [MES 9234] | 102.55 | 99.75 | 99.3 | 106.4 | 96.5 | 98.8 | 
COc1ccc2c(c1)[C@@](C)(CC[N+](C)(C)C)C(O)N2Cc1ccccc1.[I-] (stereo partly drawn) [MES 9236] | 97.6 | 101 | 100.05 | 105.8 | 103.2 | 101.65 | 
COc1ccc2c(c1)[C@@]1(C)CCN(Cc3ccccc3)C1N2Cc1ccccc1 (stereo partly drawn) [MES 9237] | 96.55 | 98.35 | 99.4 | 149.95 | 158.1 | 173.3 | 
C[C@]12CCN(Cc3ccccc3)C1N(Cc1ccccc1)c1ccc(O)cc12 (stereo partly drawn) [MES 9238] | 41.8 | 40.47 | 31.63 | 48.57 | 39.23 | 23.57 | APP Toxicity SH-SY-5Y Cells (MTS assay) (SH-SY-5Y Cells; Dose 0.08 uM): 101.8 % vehicle control; APP Toxicity SH-SY-5Y Cells (MTS assay) (SH-SY-5Y Cells; Dose 0.25 uM): 103.8 % vehicle control; APP Toxicity SH-SY-5Y Cells (MTS assay) (SH-SY-5Y Cells; Dose 0.74 uM): 106.4 % vehicle control; APP Secretion by SH-SY-5Y Cells (secreted APP; Dose 0.08 uM): 117.6 % vehicle control; APP Secretion by SH-SY-5Y Cells (secreted APP; Dose 0.25 uM): 107.7 % vehicle control; APP Secretion by SH-SY-5Y Cells (secreted APP; Dose 0.74 uM): 109.7 % vehicle control
COc1ccc2c(c1)[C@]1(C)CCN(C)C1N2Cc1ccccc1 (stereo partly drawn) [MES 9242] | 94.2 | 89.8 | 80.95 | 116.75 | 116.3 | 116.1 | 
COc1ccc2c(c1)[C@]1(C)CCNC1N2 (stereo partly drawn) [MES 9243] | 99.1 | 98.4 | 99 | 88.95 | 95.25 | 100.55 | 
C=CCO[C@H](c1ccnc2ccccc12)C1CC2CC[N+]1(Cc1c3ccccc3cc3ccccc13)CC2C=C.[Br-] (stereo partly drawn) [MES 9257] | 100.5 | 98.77 | 100 | 111.2 | 98.9 | 99.03 | 
CN(C)Cc1cc2c(cc1O)[C@]1(C)CCN(C)C1N2C (stereo partly drawn) [MES 9266] | 96.55 | 97.75 | 94.15 | 94.4 | 95.2 | 94.85 | 
